Test [1] deals with CFA-induced thermal hypersensitivity of the rat hind paw. In words: CFA-Induced Paw Radiant Heat Hypersensitivity. Conditions: 30 mg/kg p.o., HPβCD, group mean values, maximum at any time point up to 180 or 300 min. The class given is in vivo. The protocol: Each rat was placed in a test chamber on a warm glass surface and allowed to acclimate for approximately 10 min. A radiant thermal stimulus (beam of light) was then focused through the glass onto the plantar surface of each hind paw in turn. The thermal stimulus was automatically shut off by a photoelectric relay when the paw was moved or when the cut-off time was reached (20 sec for radiant heat at ˜5 amps). An initial (baseline) response latency to the thermal stimulus was recorded for each animal prior to the injection of complete Freund's adjuvant (CFA). 24 h following intraplantar CFA injection, the response latency of the animal to the thermal stimulus was then re-evaluated and compared to the animal's baseline response time. […] Post-compound treatment withdrawal latencies were assessed at fixed time intervals, typically 30, 60, 120, 180, and 300 min.
The percent reversal (% R) of hypersensitivity was calculated in one of two different ways: 1) using group mean values or 2) using individual animal values. […]
Method 1. For all compounds, the % R of hypersensitivity was calculated using the mean value for groups of animals at each time point according to the following formula: % reversal=[(group treatment response−group CFA response)/(group baseline response−group CFA response)]×100 Results are given for the maximum % reversal observed for each compound at any time point tested. […]

For test [2], the target named is T1, MGL in rat brain homogenate (Rattus norvegicus, UniProt Q8R431).
T1 construct: one g rat brain was homogenized; from tissue; host or cells: rat brain homogenate
T1 sequence (Q8R431 1-303): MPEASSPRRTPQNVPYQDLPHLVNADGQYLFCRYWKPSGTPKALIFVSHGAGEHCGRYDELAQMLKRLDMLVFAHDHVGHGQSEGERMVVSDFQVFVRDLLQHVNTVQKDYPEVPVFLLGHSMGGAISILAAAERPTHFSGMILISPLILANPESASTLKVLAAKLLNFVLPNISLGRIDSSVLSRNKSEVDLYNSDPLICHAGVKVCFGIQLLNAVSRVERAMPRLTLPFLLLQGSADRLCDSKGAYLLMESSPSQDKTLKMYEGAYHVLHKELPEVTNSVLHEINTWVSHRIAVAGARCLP
In words: 2-AG Accumulation Assay (rat brain homogenate). Conditions: compound 1 μM, percent vehicle = 2-AG accumulation with compound / vehicle ×100, read-out: Rat Brain 2AG % VehCntrl (%) @ 1 μM. The class given is biochemical.

As for `O=C(c1ccc(-c2cccc(C(F)(F)F)c2)c(Cl)c1)N1CC(N2CCN(C(=O)c3cscn3)CC2)C1` [Cpd 1102], in test [1], the “Method 1: peak % reversal” value worked out at 38%.

In the case of `O=C(c1ccc2c(ccn2-c2ncc(C(F)(F)F)cc2Cl)c1)N1CC(N2CCN(C(=O)c3nccs3)CC2)C1` [Cpd 1116], the activity at 1 µM in test [2] was found to be 828%.

The record behind these values is patent US8445477B2, “Azetidinyl diamides as monoacylglycerol lipase inhibitors” (Janssen Pharmaceutica, NV, priority 2009, dated 2013).
